{"source": "ChEMBL document CHEMBL3421625", "about": "“Discovery and optimization of novel antagonists to the human neurokinin-3 receptor for the treatment of sex-hormone disorders (Part I)” (J Med Chem, 2015)", "key": {"Substance-K receptor": {"target": "T1, Substance-K receptor (Homo sapiens, UniProt P21452)", "T1 sequence (P21452 whole entry)": "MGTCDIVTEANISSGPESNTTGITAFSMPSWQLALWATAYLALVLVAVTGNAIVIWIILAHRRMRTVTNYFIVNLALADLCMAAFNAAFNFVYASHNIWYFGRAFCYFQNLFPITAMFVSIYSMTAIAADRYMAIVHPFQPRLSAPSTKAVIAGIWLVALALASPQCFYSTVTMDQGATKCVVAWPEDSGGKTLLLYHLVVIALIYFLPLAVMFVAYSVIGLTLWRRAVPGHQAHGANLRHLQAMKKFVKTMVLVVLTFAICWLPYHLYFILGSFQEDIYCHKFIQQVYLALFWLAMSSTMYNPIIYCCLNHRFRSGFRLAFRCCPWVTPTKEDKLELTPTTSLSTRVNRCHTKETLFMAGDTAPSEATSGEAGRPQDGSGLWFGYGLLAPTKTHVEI", "test": "Displacement of [125I]-neurokinin A from human NK2R after 90 mins by scintillation counting analysis"}, "Rattus norvegicus [1]": {"tested_on": "Rattus norvegicus", "test": "In vivo inhibition of NK3R in castrated Sprague-Dawley rat assessed as decrease in serum luteinizing hormone level at 10 mg/kg, iv by radioimmunoassay relative to control", "type": "functional"}, "Neuromedin-K receptor [2]": {"target": "T2, Neuromedin-K receptor (Homo sapiens, UniProt P29371)", "T2 sequence (P29371 whole entry)": "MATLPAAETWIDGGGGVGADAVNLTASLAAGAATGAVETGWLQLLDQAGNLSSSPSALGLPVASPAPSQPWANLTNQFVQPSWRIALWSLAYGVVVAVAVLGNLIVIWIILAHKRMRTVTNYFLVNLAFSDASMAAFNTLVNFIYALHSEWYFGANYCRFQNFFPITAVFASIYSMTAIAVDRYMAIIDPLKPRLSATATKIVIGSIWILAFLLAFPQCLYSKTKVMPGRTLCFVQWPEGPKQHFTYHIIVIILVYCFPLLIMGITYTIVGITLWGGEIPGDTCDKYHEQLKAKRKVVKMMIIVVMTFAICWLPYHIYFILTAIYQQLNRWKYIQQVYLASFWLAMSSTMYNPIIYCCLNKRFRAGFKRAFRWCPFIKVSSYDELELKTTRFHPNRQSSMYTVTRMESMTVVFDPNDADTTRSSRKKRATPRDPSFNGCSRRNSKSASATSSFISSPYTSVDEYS"}, "Substance-P receptor": {"target": "Substance-P receptor (Homo sapiens, UniProt P25103)", "sequence (P25103 whole entry)": "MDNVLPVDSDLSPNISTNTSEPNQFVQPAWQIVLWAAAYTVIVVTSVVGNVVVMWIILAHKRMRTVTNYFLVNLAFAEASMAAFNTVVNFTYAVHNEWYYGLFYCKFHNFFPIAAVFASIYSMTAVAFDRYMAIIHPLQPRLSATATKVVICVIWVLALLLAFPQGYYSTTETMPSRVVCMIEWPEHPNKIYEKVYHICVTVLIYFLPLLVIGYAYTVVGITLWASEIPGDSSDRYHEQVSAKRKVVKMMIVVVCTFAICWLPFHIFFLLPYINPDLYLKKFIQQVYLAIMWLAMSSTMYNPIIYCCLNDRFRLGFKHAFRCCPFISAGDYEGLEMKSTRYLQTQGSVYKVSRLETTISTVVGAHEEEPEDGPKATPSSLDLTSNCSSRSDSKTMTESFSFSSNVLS", "description": "Displacement of [3H]-Substance P from human NK1R after 90 mins by scintillation counting analysis"}, "in vivo": {"test": "in vivo", "conditions": "Sprague-Dawley, rat, po, 3 mg/kg"}, "Neuromedin-K receptor [3]": {"target": "T2, Neuromedin-K receptor", "test": "biochemical", "description": "Displacement of [3H]-SB222200 from recombinant human NK3R expressed in CHO cell membranes after 90 mins by scintillation counting analysis"}, "[4]": {"target": "Kappa-type opioid receptor (Homo sapiens) (UniProt P41145)", "sequence (P41145 whole entry)": "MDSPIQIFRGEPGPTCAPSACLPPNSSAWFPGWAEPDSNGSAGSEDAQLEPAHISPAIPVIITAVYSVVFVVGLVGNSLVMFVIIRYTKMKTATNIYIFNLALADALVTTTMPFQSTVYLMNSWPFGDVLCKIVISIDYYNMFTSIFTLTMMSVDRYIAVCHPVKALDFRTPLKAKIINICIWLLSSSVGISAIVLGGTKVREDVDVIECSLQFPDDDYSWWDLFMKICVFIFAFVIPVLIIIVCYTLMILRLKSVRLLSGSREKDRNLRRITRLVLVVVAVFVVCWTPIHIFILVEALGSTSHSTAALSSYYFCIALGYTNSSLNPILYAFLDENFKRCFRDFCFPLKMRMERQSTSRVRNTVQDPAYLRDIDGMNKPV", "test": "Inhibition of KOR (unknown origin) at 10 uM relative to control"}, "[5]": {"target": "Neuropeptide FF receptor 1 (Homo sapiens) (UniProt Q9GZQ6)", "sequence (Q9GZQ6 whole entry)": "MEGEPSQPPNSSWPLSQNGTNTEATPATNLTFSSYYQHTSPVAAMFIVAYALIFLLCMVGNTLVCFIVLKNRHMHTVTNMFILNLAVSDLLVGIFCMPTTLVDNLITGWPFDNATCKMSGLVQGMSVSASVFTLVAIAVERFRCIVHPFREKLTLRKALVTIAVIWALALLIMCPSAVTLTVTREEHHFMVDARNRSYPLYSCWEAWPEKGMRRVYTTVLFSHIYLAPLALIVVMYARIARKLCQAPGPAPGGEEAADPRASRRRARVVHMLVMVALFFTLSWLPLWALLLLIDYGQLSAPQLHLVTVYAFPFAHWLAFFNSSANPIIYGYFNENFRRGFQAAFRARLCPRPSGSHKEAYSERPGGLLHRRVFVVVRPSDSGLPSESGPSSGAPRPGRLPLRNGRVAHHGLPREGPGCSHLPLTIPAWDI", "test": "Inhibition of NPFF1 (unknown origin) at 10 uM relative to control"}, "[6]": {"test": "Apparent permeability across apical to basolateral side in human Caco2 cells in presence of 0.1% bovine serum albumin", "conditions": "Caco-2"}, "[7]": {"test": "Apparent permeability across basolateral to apical side in human Caco2 cells in presence of 0.1% bovine serum albumin", "conditions": "Caco-2"}, "[8]": {"test": "Volume of distribution at steady state in castrated cynomolgus monkey at 10 mg/kg, iv by LC-MS/MS analysis", "conditions": "male, in vivo"}, "Cynomolgus monkey [9]": {"tested_on": "Cynomolgus monkey", "test": "Unbound Cmax in castrated cynomolgus monkey at 5 mg/kg, po by LC-MS/MS analysis", "type": "ADME, organism-based, Macaca fascicularis", "parameters": "dose 5 mg/kg, route oral", "conditions": "in vivo"}, "Cynomolgus monkey [10]": {"tested_on": "Cynomolgus monkey", "test": "Unbound Cmax in castrated cynomolgus monkey at 20 mg/kg, po by LC-MS/MS analysis", "type": "ADME, organism-based, Macaca fascicularis", "parameters": "dose 20 mg/kg, route oral", "conditions": "in vivo"}, "[11]": {"test": "Total systemic clearance in castrated cynomolgus monkey at 10 mg/kg, iv by LC-MS/MS analysis", "type": "ADME, organism-based, Macaca fascicularis", "parameters": "dose 10 mg/kg, route intravenous", "conditions": "male, in vivo"}, "[12]": {"test": "Tmax in castrated cynomolgus monkey at 20 mg/kg, po by LC-MS/MS analysis", "type": "ADME, organism-based, Macaca fascicularis", "parameters": "dose 20 mg/kg, route oral", "conditions": "male, in vivo"}, "Cynomolgus monkey [13]": {"tested_on": "Cynomolgus monkey", "test": "Unbound AUC in castrated cynomolgus monkey at 20 mg/kg, po by LC-MS/MS analysis", "type": "ADME, organism-based, Macaca fascicularis", "parameters": "dose 20 mg/kg, route oral", "conditions": "in vivo"}, "Cynomolgus monkey [14]": {"tested_on": "Cynomolgus monkey", "test": "Unbound AUC in castrated cynomolgus monkey at 5 mg/kg, po by LC-MS/MS analysis", "type": "ADME, organism-based, Macaca fascicularis", "parameters": "dose 5 mg/kg, route oral", "conditions": "in vivo"}, "Cynomolgus monkey [15]": {"tested_on": "Cynomolgus monkey", "test": "Unbound AUC in castrated cynomolgus monkey at 10 mg/kg, iv by LC-MS/MS analysis", "type": "ADME, organism-based, Macaca fascicularis", "parameters": "dose 10 mg/kg, route intravenous", "conditions": "in vivo"}, "[16]": {"test": "Tmax in castrated cynomolgus monkey at 5 mg/kg, po by LC-MS/MS analysis", "type": "ADME, organism-based, Macaca fascicularis", "parameters": "dose 5 mg/kg, route oral", "conditions": "male, in vivo"}, "Rattus norvegicus [17]": {"tested_on": "Rattus norvegicus", "test": "Hepatotoxicity in Sprague-Dawley rat assessed as effect on ALT level at 30 mg/kg, po bid administered for 5 days", "type": "toxicity, organism-based", "parameters": "dose 30 mg/kg, route oral", "conditions": "in vivo, 120 h"}, "Rattus norvegicus [18]": {"tested_on": "Rattus norvegicus", "test": "Hepatotoxicity in Sprague-Dawley rat assessed as effect on AST level at 30 mg/kg, po bid administered for 5 days", "type": "toxicity, organism-based", "parameters": "dose 30 mg/kg, route oral", "conditions": "in vivo, 120 h"}, "Rattus norvegicus [19]": {"tested_on": "Rattus norvegicus", "test": "Hepatotoxicity in Sprague-Dawley rat assessed as effect on bilirubin level at 30 mg/kg, po bid administered for 5 days", "type": "toxicity, organism-based", "parameters": "dose 30 mg/kg, route oral", "conditions": "in vivo, 120 h"}, "Rattus norvegicus [20]": {"tested_on": "Rattus norvegicus", "test": "Drug uptake in Sprague-Dawley rat at 30 mg/kg, po bid administered for 5 days", "type": "ADME, organism-based", "parameters": "dose 30 mg/kg, route oral", "conditions": "in vivo, 120 h"}, "Cynomolgus monkey [21]": {"tested_on": "Cynomolgus monkey", "test": "In vivo inhibition of NK3R in castrated cynomolgus monkey assessed as decrease in plasma luteinizing hormone level at 20 mg/kg, po measured at 90 to 300 mins", "type": "functional, organism-based", "parameters": "dose 20 mg/kg", "conditions": "Macaca fascicularis"}, "Cynomolgus monkey [22]": {"tested_on": "Cynomolgus monkey", "test": "In vivo inhibition of NK3R in castrated cynomolgus monkey assessed as decrease in plasma luteinizing hormone level at 20 mg/kg, po measured at 480 mins", "type": "functional, organism-based", "parameters": "dose 20 mg/kg", "conditions": "Macaca fascicularis"}, "[23]": {"target": "Voltage-gated inwardly rectifying potassium channel KCNH2 (Homo sapiens, UniProt Q12809)", "sequence (Q12809 whole entry)": "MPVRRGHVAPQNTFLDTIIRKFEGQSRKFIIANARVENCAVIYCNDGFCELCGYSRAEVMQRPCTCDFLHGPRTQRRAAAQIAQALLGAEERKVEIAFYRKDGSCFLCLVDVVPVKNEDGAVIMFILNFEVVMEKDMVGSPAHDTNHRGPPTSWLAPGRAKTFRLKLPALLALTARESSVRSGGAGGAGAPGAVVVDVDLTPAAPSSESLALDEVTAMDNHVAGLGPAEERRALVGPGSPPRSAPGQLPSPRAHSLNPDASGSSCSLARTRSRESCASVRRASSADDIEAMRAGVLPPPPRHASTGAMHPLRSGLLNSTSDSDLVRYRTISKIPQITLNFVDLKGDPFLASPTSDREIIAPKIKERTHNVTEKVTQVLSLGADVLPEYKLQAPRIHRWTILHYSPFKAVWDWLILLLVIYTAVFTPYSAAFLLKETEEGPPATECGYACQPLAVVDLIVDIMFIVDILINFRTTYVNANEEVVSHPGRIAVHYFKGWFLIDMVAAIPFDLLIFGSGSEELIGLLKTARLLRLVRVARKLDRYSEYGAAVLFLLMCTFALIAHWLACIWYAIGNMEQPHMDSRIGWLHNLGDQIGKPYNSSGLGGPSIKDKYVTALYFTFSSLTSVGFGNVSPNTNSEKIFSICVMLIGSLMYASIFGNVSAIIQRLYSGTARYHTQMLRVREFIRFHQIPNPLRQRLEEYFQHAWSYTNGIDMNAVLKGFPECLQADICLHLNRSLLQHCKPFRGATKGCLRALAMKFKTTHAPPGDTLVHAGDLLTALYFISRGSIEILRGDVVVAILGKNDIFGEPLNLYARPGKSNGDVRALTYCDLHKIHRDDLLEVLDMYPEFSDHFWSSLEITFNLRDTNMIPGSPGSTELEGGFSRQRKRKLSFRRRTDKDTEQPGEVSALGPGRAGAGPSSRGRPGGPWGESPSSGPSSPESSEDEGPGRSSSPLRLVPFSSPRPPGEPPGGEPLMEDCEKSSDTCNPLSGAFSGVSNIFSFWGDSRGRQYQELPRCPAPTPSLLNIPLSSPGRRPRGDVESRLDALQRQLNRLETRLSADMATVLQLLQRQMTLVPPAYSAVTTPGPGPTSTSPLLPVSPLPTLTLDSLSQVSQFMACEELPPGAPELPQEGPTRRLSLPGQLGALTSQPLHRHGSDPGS", "description": "Inhibition of human ERG expressed in HEK293 cells after 5 mins by patch-clamp assay"}}, "note": "The source made the active and inactive calls. The calls are words filed in the database; no cut-off is given here.", "data": [{"smiles": "C[C@@H]1c2nnc(-c3csc(-c4ccc(F)cc4F)n3)n2CCN1C(=O)c1ccc(-c2cccs2)cc1", "values": [{"measurement": "Ki", "setting": "Substance-K receptor", "result": 794, "unit": "nM"}, {"measurement": "inhibition in vivo at 10 mg/kg", "setting": "Rattus norvegicus [1]", "result": 50, "unit": "%"}, {"measurement": "IC50", "setting": "Neuromedin-K receptor [2]", "result": 20, "unit": "nM"}, {"measurement": "Ki", "setting": "Substance-P receptor", "result": 1260, "unit": "nM"}, {"measurement": "bioavailability", "setting": "in vivo", "result": 17, "unit": "%"}, {"measurement": "Ki", "setting": "Neuromedin-K receptor [3]", "result": 2, "unit": "nM"}]}, {"smiles": "Cc1nc(-c2nnc3n2CCN(C(=O)c2ccc(-c4cccs4)cc2)[C@@H]3C)cs1", "values": [{"measurement": "inhibition", "setting": "[4]", "result": 25, "unit": "%"}, {"measurement": "inhibition", "setting": "[5]", "result": 18, "unit": "%"}, {"measurement": "Papp A→B", "setting": "[6]", "result": 48.2, "unit": "×10⁻⁶ cm/s"}, {"measurement": "Papp B→A", "setting": "[7]", "result": 52.9, "unit": "×10⁻⁶ cm/s"}, {"measurement": "Vd", "setting": "[8]", "result": 1.52, "unit": "L/kg"}, {"measurement": "fCmax", "setting": "Cynomolgus monkey [9]", "result": 17.9, "unit": "nM"}, {"measurement": "fCmax", "setting": "Cynomolgus monkey [10]", "result": 237, "unit": "nM"}, {"measurement": "clearance", "setting": "[11]", "result": 16.5, "unit": "mL/min/kg"}, {"measurement": "Tmax", "setting": "[12]", "result": 1, "unit": "h"}, {"measurement": "fAUC", "setting": "Cynomolgus monkey [13]", "result": 0.526, "unit": "µM·h"}, {"measurement": "fAUC", "setting": "Cynomolgus monkey [14]", "result": 0.0646, "unit": "µM·h"}, {"measurement": "fAUC", "setting": "Cynomolgus monkey [15]", "result": 1.055, "unit": "µM·h"}, {"measurement": "Tmax", "setting": "[16]", "result": 1.5, "unit": "h"}, {"measurement": "Activity", "setting": "Rattus norvegicus [17]", "result": "Non-toxic"}, {"measurement": "Activity", "setting": "Rattus norvegicus [18]", "result": "Non-toxic"}, {"measurement": "Activity", "setting": "Rattus norvegicus [19]", "result": "Non-toxic"}, {"measurement": "Drug uptake", "setting": "Rattus norvegicus [20]", "result": "Not Active"}, {"measurement": "inhibition", "setting": "Cynomolgus monkey [21]", "result": "Active"}, {"measurement": "inhibition", "setting": "Cynomolgus monkey [22]", "result": "inactive"}, {"measurement": "IC50", "setting": "[23]", "result": 24000, "unit": "nM"}]}]}
